In patent US9765092B2, “Tricyclic piperidine compounds” (ACTELION PHARMACEUTICALS LTD, priority 2013, dated 2017):

Biological target: human TPH1 (Homo sapiens (Human), UniProt P17752)
Experiment: Biochemical in vitro assay using fluorescence readout (TPH1 inhibition)
[1] = human TPH1, fluorescence readout
[2] = full length human TPH1, 40 μM L-tryptophan, 15° C., 60 minutes, fluorescence at 540 nm, mean if determined several times

Sequence of human TPH1 (P17752 whole entry): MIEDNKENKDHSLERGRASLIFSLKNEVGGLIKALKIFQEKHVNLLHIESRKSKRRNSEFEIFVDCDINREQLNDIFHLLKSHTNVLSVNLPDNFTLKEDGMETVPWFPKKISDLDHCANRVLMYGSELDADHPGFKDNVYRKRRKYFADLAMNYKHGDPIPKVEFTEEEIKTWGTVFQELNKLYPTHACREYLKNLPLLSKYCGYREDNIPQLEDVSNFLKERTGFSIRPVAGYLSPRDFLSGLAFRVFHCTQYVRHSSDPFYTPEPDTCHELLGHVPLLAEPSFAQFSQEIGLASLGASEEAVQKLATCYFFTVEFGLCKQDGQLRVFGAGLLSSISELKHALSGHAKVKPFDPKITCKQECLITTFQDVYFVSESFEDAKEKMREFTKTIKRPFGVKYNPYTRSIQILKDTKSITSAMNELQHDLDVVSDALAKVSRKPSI

| Compound | IC50 [1] | IC50 [2] |
| --- | --- | --- |
| Cc1nn2c3c(nc2s1)CCN(C(=O)COc1ccc(N2CCOCC2)nc1Cl)C3c1sc(C(=O)N(C)C)cc1F (stereo not shown) [Example 1.24.1, 5-(6-(2-((2-chloro-6-morpholinopyridin-3-yl)oxy)acetyl)-2-methyl-5,6,7,8-tetrahydro-[1,3,4]thiadiazolo[2′,3′:2,3]imidazo[4,5-c]pyridin-5-yl)-4-fluoro-N,N-dimethylthiophene-2-carboxamide] | 2 nM | – |
| COC(=O)c1ccc(OCC(=O)N2CCc3nc4sc(C)nn4c3C2c2ccc(Cl)cc2F)c(Cl)n1 (stereo not shown) [Example 1.4.8, Methyl 6-chloro-5-(2-(5-(4-chloro-2-fluorophenyl)-2-methyl-7,8-dihydro-[1,3,4]thiadiazolo[2′,3′:2,3]imidazo[4,5-c]pyridin-6(5H)-yl)-2-oxoethoxy)picolinate] | 32 nM | – |
| CCc1nn2c3c(nc2s1)CCN(C(=O)COc1ccc(-c2ncco2)nc1Cl)C3c1ccc(Cl)cc1F (stereo not shown) [Example 3.1.3, 1-(5-(4-chloro-2-fluorophenyl)-2-ethyl-7,8-dihydro-[1,3,4]thiadiazolo[2′,3′:2,3]imidazo[4,5-c]pyridin-6(5H)-yl)-2-((2-chloro-6-(oxazol-2-yl)pyridin-3-yl)oxy)ethanone] | 12 nM | – |
| Cc1nn2c3c(nc2s1)CCN(C(=O)COc1ccc(C(=O)N(C)C)nc1Cl)C3c1ccc(F)cc1F (stereo not shown) [Example 1.55.1, 6-chloro-5-(2-(5-(2,4-difluorophenyl)-2-methyl-7,8-dihydro-[1,3,4]thiadiazolo[2′,3′:2,3]imidazo[4,5-c]pyridin-6(5H)-yl)-2-oxoethoxy)-N,N-dimethylpicolinamide] | 19 nM | – |
| Cc1nn2c3c(nc2s1)CCN(C(=O)COc1ccc(N2CCOCC2)nc1Cl)C3c1ncc(Cl)cc1F (stereo not shown) [Example 1.33.1, 1-(5-(5-chloro-3-fluoropyridin-2-yl)-2-methyl-7,8-dihydro[1,3,4]thiadiazolo[2′,3′:2,3]imidazo[4,5-c]pyridin-6(5H)-yl)-2-((2-chloro-6-morpholinopyridin-3-yl)oxy)ethanone] | 2 nM | – |
| Cc1nn2c3c(nc2s1)CCN(C(=O)COc1ccc(NS(C)(=O)=O)nc1Cl)C3c1ccc(C)c(F)c1F (stereo not shown) [Example 1.61.2, N-(6-chloro-5-(2-(5-(2,3-difluoro-4-methylphenyl)-2-methyl-7,8-dihydro-[1,3,4]thiadiazolo[2′,3′:2,3]imidazo-[4,5-c]pyridin-6(5H)-yl)-2-oxoethoxy)pyridin-2-yl)methanesulfonamide] | 34 nM | – |
| CCNc1nn(C)c(C2c3c(nc4sc(C)nn34)CCN2C(=O)COc2ccc(N3CCOCC3)nc2Cl)c1C (stereo not shown) [Example 1.51.1, 2-((2-Chloro-6-morpholinopyridin-3-yl)oxy)-1-(5-(3-(ethylamino)-1,4-dimethyl-1H-pyrazol-5-yl)-2-methyl-7,8-dihydro-[1,3,4]thiadiazolo[2′,3′:2,3]imidazo[4,5-c]pyridin-6(5H)-yl)ethanone] | – | 58 nM |
| CCc1nc(N2CCCS2(=O)=O)ccc1OCC(=O)N1CCc2nc3sc(CF)nn3c2C1c1ncc(C)cc1F (stereo not shown) [Example 7.2.1, 2-((6-(1,1-dioxidoisothiazolidin-2-yl)-2-ethylpyridin-3-yl)oxy)-1-(5-(3-fluoro-5-methylpyridin-2-yl)-2-(fluoromethyl)-7,8-dihydro-[1,3,4]thiadiazolo[2′,3′:2,3]imidazo[4,5-c]pyridin-6(5H)-yl)ethanone] | 9 nM | – |
| CS(=O)(=O)Nc1ccc(OCC(=O)N2CCc3nc4sc(C(F)(F)F)nn4c3C2c2ccc(Cl)cc2F)c(Cl)n1 (stereo not shown) [Example 5.1.1, N-(6-chloro-5-(2-(5-(4-chloro-2-fluorophenyl)-2-(trifluoromethyl)-7,8-dihydro-[1,3,4]thiadiazolo-[2′,3′:2,3]imidazo[4,5-c]pyridin-6(5H)-yl)-2-oxoethoxy)pyridin-2-yl)methanesulfonamide] | 50 nM | – |
| CCc1ncccc1OCC(=O)N1CCc2nc3sccn3c2C1c1ccc(C)cc1F (stereo not shown) [Example 6.10.2, 2-((2-ethylpyridin-3-yl)oxy)-1-(5-(2-fluoro-4-methyl-phenyl)-7,8-dihydrothiazolo[2′,3′:2,3]imidazo[4,5-c]-pyridin-6(5H)-yl)ethanone] | 7 nM | – |
| CCc1nc(NS(C)(=O)=O)ccc1OCC(=O)N1CCc2nc3sc(CF)nn3c2C1c1sc(C)nc1C (stereo not shown) [Example 7.4.2, N-(5-(2-(5-(2,4-dimethylthiazol-5-yl)-2-(fluoromethyl)-7,8-dihydro-[1,3,4]thiadiazolo[2′,3′:2,3]imidazo[4,5-c]pyridin-6(5H)-yl)-2-oxoethoxy)-6-ethylpyridin-2-yl)methanesulfonamide] | 7 nM | – |
| 2-((2-chloro-6-morpholinopyridin-3-yl)oxy)-1-(5-(4-(2-hydroxypropan-2-yl)thiophen-2-yl)-2-methyl-7,8-dihydro-[1,3,4]thiadiazolo[2′,3′:2,3]imidazo[4,5-c]pyridin-6(5H)-yl)ethanone [Example 1.19.1] | 6 nM | – |
| Cn1nc(OCC(=O)N2CCc3nc4sccn4c3C2c2nc3ccccc3s2)c(Cl)c1C(F)(F)F (stereo not shown) [Example 6.12.7, 1-(5-(benzo[d]thiazol-2-yl)-7,8-dihydrothiazolo-[2′,3′:2,3]imidazo[4,5-c]pyridin-6(5H)-yl)-2-((4-chloro-1-methyl-5-(trifluoromethyl)-1H-pyrazol-3-yl)-oxy)ethanone] | 62 nM | – |
| Cc1nn2c3c(nc2s1)CCN(C(=O)COc1ccc(C(=O)N(C)C2CC2)nc1Cl)C3c1ccc(Cl)cc1F (stereo not shown) [Example 1.4.46, 6-chloro-5-(2-(5-(4-chloro-2-fluorophenyl)-2-methyl-7,8-dihydro-[1,3,4]thiadiazolo[2′,3′:2,3]imidazo[4,5-c]pyridin-6(5H)-yl)-2-oxoethoxy)-N-cyclopropyl-N-methylpicolinamide] | 16 nM | – |
| Cc1nn2c3c(nc2s1)CCN(C(=O)COc1ccc(N2CC(F)(F)C2)nc1Cl)C3c1sc(C(=O)N(C)C)cc1F (stereo not shown) [Example 1.24.6, 5-(6-(2-((2-chloro-6-(3,3-difluoroazetidin-1-yl)pyridin-3-yl)oxy)acetyl)-2-methyl-5,6,7,8-tetrahydro-[1,3,4]thiadiazolo [2′,3′:2,3]imidazo[4,5-c]pyridin-5-yl)-4-fluoro-N,N-dimethylthiophene-2-carboxamide] | 5 nM | – |
| CNC(=O)c1ccc(OCC(=O)N2CCc3nc4sc(C)nn4c3C2c2cc(C(=O)N(C)C)cs2)c(Cl)n1 (stereo not shown) [Example 1.9.6, 6-Chloro-5-(2-(5-(4-(dimethylcarbamoyl)thiophen-2-yl)-2-methyl-7,8-dihydro-[1,3,4]-thiadiazolo[2′,3′:2,3]imidazo[4,5-c]pyridin-6(5H)-yl)-2-oxoethoxy)-N-methyl-picolinamide] | – | 99 nM |
| CCc1nc(C)ccc1OCC(=O)N1CCc2nc3sc(C)nn3c2C1c1ncc(C2CC2)cc1F (stereo not shown) [Example 1.14.2, 1-(5-(5-cyclopropyl-3-fluoropyridin-2-yl)-2-methyl-7,8-dihydro-[1,3,4]thiadiazolo[2′,3′:2,3]imidazo[4,5-c]pyridin-6(5H)-yl)-2-((2-ethyl-6-methylpyridin-3-yl)oxy)ethanone] | 6 nM | – |
| Cc1nn2c3c(nc2s1)CCN(C(=O)C(C)(C)Oc1ccc(C(=O)N(C)C)nc1Cl)C3c1ccc(Cl)cc1F (stereo not shown) [Example 1.4.58, 6-chloro-5-((1-(5-(4-chloro-2-fluorophenyl)-2-methyl-7,8-dihydro-[1,3,4]thiadiazolo[2′,3′:2,3]imidazo[4,5-c]pyridin-6(5H)-yl)-2-methyl-1-oxopropan-2-yl)oxy)-N,N-dimethylpicolinamide] | 55 nM | – |
| CCc1ncccc1OCC(=O)N1CCc2nc3sc(C)nn3c2C1c1cnc(N2CCOCC2)s1 (stereo not shown) [Example 1.7.1, 2-((2-ethylpyridin-3-yl)oxy)-1-(2-methyl-5-(2-morpholinothiazol-5-yl)-7,8-dihydro-[1,3,4]thiadiazolo[2′,3′:2,3]imidazo[4,5-c]pyridin-6(5H)-yl)ethanone] | 337 nM | – |
| O=C(COc1ccc(Cl)cc1Cl)N1CCc2nc3sccn3c2C1c1cc2cccnc2s1 (stereo not shown) [Example 6.14.1, 2-(2,4-dichlorophenoxy)-1-(5-(thieno[2,3-b]pyridin-2-yl)-7,8-dihydrothiazolo[2′,3′:2,3]imidazo[4,5-c]pyridin-6(5H)-yl)ethanone] | 25 nM | – |
| Cc1nn2c3c(nc2s1)CCN(C(=O)COc1ccc(N(C)CCO)nc1Cl)C3c1ccc(Cl)cc1F (stereo not shown) [Example 1.4.13, 1-(5-(4-Chloro-2-fluorophenyl)-2-methyl-7,8-dihydro-[1,3,4]thiadiazolo[2′,3′:2,3]imidazo[4,5-c]pyridin-6(5H)-yl)-2-((2-chloro-6-((2-hydroxyethyl)-(methyl)amino)pyridin-3-yl)oxy)ethanone] | – | 5 nM |
| Cc1nn2c3c(nc2s1)CCN(C(=O)COc1ccc(N2CCOCC2)nc1Cl)C3c1cnc(C(=O)N(C)C)s1 (stereo not shown) [Example 1.34.1, 5-(6-(2-((2-chloro-6-morpholinopyridin-3-yl)oxy)acetyl)-2-methyl-5,6,7,8-tetrahydro-[1,3,4]thiadiazolo[2′,3′:2,3]imidazo[4,5-c]pyridin-5-yl)-N,N-dimethylthiazole-2-carboxamide] | 6 nM | – |
| Cc1nn2c3c(nc2s1)CCN(C(=O)COc1ccc[n+]([O-])c1Cl)C3c1ccc(C2CC2)cc1F (stereo not shown) [Example 1.6.19, 2-chloro-3-(2-(5-(4-cyclopropyl-2-fluorophenyl)-2-methyl-7,8-dihydro-[1,3,4]thiadiazolo[2′,3′:2,3]imidazo[4,5-c]pyridin-6(5H)-yl)-2-oxoethoxy)pyridine-1-oxide] | 250 nM | – |
| COC1(c2csc(C3c4c(nc5sc(C)nn45)CCN3C(=O)COc3ccc(N4CCOCC4)nc3Cl)c2)COC1 (stereo not shown) [Example 1.50.1, 2-((2-chloro-6-morpholinopyridin-3-yl)oxy)-1-(5-(4-(3-methoxyoxetan-3-yl)thiophen-2-yl)-2-methyl-7,8-dihydro-[1,3,4]thiadiazolo[2′,3′:2,3]imidazo[4,5-c]pyridin-6(5H)-yl)ethanone] | 6 nM | – |
| CNC(=O)c1csc(C2c3c(nc4sc(C)nn34)CCN2C(=O)COc2ccc(C(F)(F)F)cc2Cl)n1 (stereo not shown) [Example 1.44.1, 2-(6-(2-(2-Chloro-4-(trifluoromethyl)phenoxy)acetyl)-2-methyl-5,6,7,8-tetrahydro-[1,3,4]thiadiazolo[2′,3′:2,3]imidazo[4,5-c]pyridin-5-yl)-N-methylthiazole-4-carboxamide] | – | 311 nM |
